This experiment in a line: Inhibition of rat intestinal alpha-glucosidase using para-nitrophenyl-alpha-D-glucopyranoside as substrate incubated for 5 min prior to substrate addition measured after 5 min by spectrophotometric analysis.
For orientation: IC50 means the point on the concentration scale where inhibition reaches its midpoint. Low readings indicate higher potency, high ones lower potency. Take `O=C(/C=C/c1ccc(O)c(O)c1)c1ccc2occc2c1O`: the IC50 worked out at 15.2 µM.
To `O=C(/C=C/c1ccccc1)c1cc2ccoc2cc1O` belongs 14.5 µM.
Then `COc1ccc(/C=C/C(=O)c2ccc3occc3c2O)cc1OC`, with 5 µM; and `COc1ccc(/C=C/C(=O)c2cc3ccoc3cc2O)cc1OC`, with 10.8 µM; and `O=C(/C=C/c1ccc(O)c(O)c1)c1cc2ccoc2cc1O`, with 18.9 µM.
Then `COc1ccc(/C=C/C(=O)c2ccc3occc3c2O)cc1`, with 9.2 µM; and `COc1ccc(/C=C/C(=O)c2ccc3occc3c2O)c(OC)c1OC`, with 17.3 µM.
As for `O=C(/C=C/c1ccc(O)cc1)c1ccc2occc2c1O`, half-maximal inhibition (IC50) was put at 10.9 µM.
Compound `COc1cc(OC)c(OC)cc1/C=C/C(=O)c1cc2ccoc2cc1O` came in with an IC50 of 13.4 µM.
